Values joined by “and” are separate entries in the source; they are usually repeats but may differ in a detail not shown here. Equal entries are not always repeated. Where two headings read alike, the source gives them in different places.
How the values were obtained:
[1] = for WOBE437 brain levels / WOBE437 plasma levels: 20 min after gavage
Method: The mice were sacrificed by decapitation after gavage administration. Brain, blood, liver, kidney, and spleen were collected for the LC-MS/MS analyses. All tissues were briefly washed with ice cold PBS and immediately snap-frozen and stored at -80°C. Whole brain samples were dissected between the hemispheres. Blood samples were immediately centrifuged to obtain plasma, which was stored at -80°C.
Samples extractions and LC-MS/MS measurements we performed as previously described ([Chicca et al., 2017]). Briefly, tissues were weighted and transferred in to extraction tubes containing three steel beads and 0.1 M formic acid. Tissues were homogenized and rapidly transferred to glass tubes containing 1.5 mL of ethyl acetate:hexane (9:1) 0.1% formic acid and internal standards (ISs). Samples were centrifuged and the organic phase was recovered. After evaporation, the extracts were reconstituted in 200 μL of ACN:ddH2O (8:2). 10 μL of the solution were injected in the LC-MS/MS system using the same LC and ionization protocols as described ([Chicca et al., 2017]).

[2] = for Clearance: 1 μM WOBE437, preliminary; for MAB (estimated maximal bioavailability): from liver microsome clearance
Method: Human or mice microsome clearance experiment were carried out as according to a previously describe protocol ([Soethoudt et al., 2017]). […] After 1, 3, 6, 9, 15, 25, 35, and 45 min, 40 μL of the preparation was transferred and quenched with 3:1 (v/v) acetonitrile containing internal standards. Samples were then cooled and centrifuged before analysis by LC-MS/MS. Log peak area ratios (test compound peak area/internal standard peak area) are plotted against incubation time using a linear fit. The calculated slope is used to determine the intrinsic clearance. Data are obtained from single experiments measured with multiple time-points.

BALB/c male mice [3] = assay: Hot plate test (acute pain) after oral administration; type: in vivo
Method: The test was performed using a clean 54–56°C hot plate (Thermo Fisher Scientific, United states) with a Plexiglas cylinder. The latency to show the first nociceptive response (paw lick or foot shake) was measured.

BALB/c male mice [4] = assay: Tetrad test; type: in vivo; conditions: 50 mg/kg p.o., 1 h after gavage
Method: The tetrad test was performed in the following order: rectal temperature, catalepsy, locomotion and analgesia. Rectal temperature was measured before (basal) and 1 h post gavage administration by using a thermocouple probe (Physitemp Instruments Inc., United states) and results were reported as the difference (Δ) between both temperatures. The bar test was used to evaluated catalepsy by placing the mouse in an imposed position with both forelimbs resting on a bar of 4 cm high; the end point of catalepsy was considered when both front limbs were removed or remained over 120 s. Locomotor activity was determined by placing the mouse on a rotarod (Erweka, Germany) at 4 rpm, the latency to fall was measured with a cut-off time of 120 s. Each mouse was previously trained to walk over the rotarod for at least 120 s. Catalepsy and locomotion were measured in three trials. Analgesia was evaluated with the hot plate test, each mouse was placed in a 54–56°C hot plate (Thermo Fisher Scientific, United states) with a Plexiglas cylinder, the latency to first nociceptive response (paw lick or foot shake) was measured.

[5] = tested on: endocannabinoid levels (AEA, 2-AG); assay: Endocannabinoid, N-acylethanolamine and WOBE437 levels by LC-MS/MS after the hot plate test; type: in vivo, BALB/c male mice
Text: The mice were sacrificed by decapitation after gavage administration. […] Whole brain samples were dissected between the hemispheres.
Samples were centrifuged and the organic phase was recovered.

BALB/c mice [6] = conditions: for effect of antagonist on the antiallodynia effect of WOBE437, 3 days treatment / effect of antagonist on the antiinflammatory (edema) effect of WOBE437, 3 days treatment / effect of antagonist on the antiallodynia effect of WOBE437, single dose: antagonist i.p. 30 min before WOBE437 10 mg/kg i.p.
Method: BALB/c mice were anesthetized with xylazine/ketamine (5 and 10 mg/kg, respectively) and subsequently monoarthritis was induced by intra-articular injection of complete Freund’s adjuvant (CFA, 40 μL; Sigma-Aldrich, St. Louis, MO, United states) into the right knee joint. The inflammation was allowed to develop for 14 days prior to pharmacological treatments starting at day 15 for 1 or 3 days, respectively. Mechanical sensitivity (allodynia) and knee diameter (edema) were evaluated 1 h post treatment in the ipsilateral and contralateral knees. Articular sensitivity was evaluated using a digital algometer (Bioseb, United states). […] A cut-off force of 300 g was considered to avoid damage in the tissue. The measurements were done in triplicates and the average was considered for the statistical analysis. To evaluate the degree of inflammation, knee diameter was measured in both extremities using a digital micrometer (Mitutoyo, United states). […] Indomethacin (5 mg/kg; Sigma-Aldrich, United states) was used as a reference drug (positive control). For all the compounds, dimethylsulfoxide (DMSO) was used as vehicle (20 μL, i.p.).

BALB/c mice [7] = assay: Open field test in monoarthritic mice; type: in vivo; conditions: WOBE437 i.p.
Method: Potential motor changes were evaluated in an open field box (40 cm × 40 cm × 30 cm, Plexiglas). The mice were individually placed in the center and allowed to move freely for 5 min. The locomotion activity was recorded with the OpenFieldTest^© ([Reynoso-Moreno et al., 2017]) and traveled distance was evaluated automatically. After every experiment, the box was cleaned with 70% ethanol to remove odors.

[8] = tested on: Cnr1, Cnr2, Nape-pld, Dagla; assay: Real-time PCR of ECS genes after 3 days treatment in the monoarthritis model; type: in vivo, BALB/c mice; conditions: 10 mg/kg i.p., somatosensory cortex, thalamus, articular tissue
Method: Total RNA extraction and reverse transcription were carried out with a previously described protocol ([Castro-Torres et al., 2015]). The kit LightCycler® FastStart DNA Master^PLUS SYBR Green I (Roche, United states) was used for the real-time PCR, according to manufacturer protocol, and the reaction was performed in the LightCycler 2.0 equipment (Roche, United states). The relative gene expression was calculated by using the method known as 2ˆ(-ΔΔCt) ([Livak and Schmittgen, 2001]). ΔΔCt was calculated using the following formula:
(1) ΔΔCt=(CtTE−CtHE)−(CtTC−CtHC)
Finally 2ˆ(-ΔΔCt) was calculated to obtain the fold change of gene expression. Every sample (n = 6-15, per group and region) was analyzed in duplicated and the mean value was considered for ΔΔCt calculation. Beta-actin was used as the housekeeping gene and mean of vehicle group was used as a calibrator. Sequences and size products of the primers for beta actin (Actb) cannabinoid CB1 receptor (Cnr1), cannabinoid CB2 receptor (Cnr2), diacylglycerol lipase alpha (Dagla), N-acylphosphatidylethanolamine specific phospholipase D (Nape-pld) are shown in Table 1.

BALB/c male mice [9] = tested on: BALB/c male mice; parameters: method as in Chicca et al., 2017; conditions: i.p.; ref Chicca et al., 2017; cited from earlier work
[10] = 50 mg/kg p.o., 1 h after gavage

## CCCCCCC/C=C/C=C/C(=O)NCCc1ccc(OC)c(OC)c1 [WOBE437]
[1]; 10 mg/kg p.o.
  WOBE437 brain levels: 24.7 ± 25.3 pmol/g
  WOBE437 plasma levels: 47.3 ± 32.5 pmol/mL
[1]; 50 mg/kg p.o.
  apparent Cmax in brain: ~500 pmol/g and 471.7 ± 182.6 pmol/g
  apparent volume of distribution (Vd) at Cmax: 80.4 L/kg
  apparent volume of distribution (Vd) at the steady state: 609 L/kg
  factor of reduction of hepatic concentration between 20 and 40 min: 4
  highest concentration in kidney: 2277 ± 916 pmol/g
  highest concentration in spleen: 1030 ± 339 pmol/g
  time after which WOBE437 is cleared from the brain: approximately 180 min
  tmax in kidney, liver, and spleen: ≤ 20 min
  WOBE437 brain levels: 534.5 ± 109.9 pmol/g
  WOBE437 plasma levels: 1731.5 ± 703.4 pmol/mL
[1]; 50 mg/kg p.o. vs 10 mg/kg i.p.
  brain levels after p.o. as compared to i.p.: approximately 10 times lower
[1]; 50 mg/kg p.o., 20 min
  highest concentration in liver: 4720 ± 3273 pmol/g
[1]; 50 mg/kg p.o., 40 min
  hepatic concentration at 40 min: 1080 pmol/g
[1]; 50 mg/kg p.o., 3 h
  WOBE437 concentration in brain 3 h after administration: 18 pmol/g
[1]; 50 mg/kg p.o., Figure 1B
  Brain t1/2: 62.7 min
  Plasma t1/2: 19.5 min
[1]; 50 mg/kg p.o., equivalent of brain Cmax
  estimated concentration in brain: 399.7 ± 154.7 nM
[1]; read-out: apparent Cmax in plasma, 50 mg/kg p.o.
  Cmax: ~2000 nM and 1930 nM
[2]; human liver microsomes
  Clearance: 0.657 mL/min/kg
[2]; humans
  MAB (estimated maximal bioavailability): 4%
[2]; mice
  MAB (estimated maximal bioavailability): 17%
[2]; mouse liver microsomes
  Clearance: 0.174 mL/min/kg
BALB/c male mice [3]; [10]
  increase of pain threshold vs vehicle: 61.7%
  pain threshold (latency to first nociceptive response): 9.4 ± 1.9 s
BALB/c male mice [3]; 100 mg/kg p.o., 1 h after gavage
  pain threshold (latency to first nociceptive response): 11.7 ± 2.6 s
BALB/c male mice [3]; from effective doses in hot plate test, 50 mg/kg p.o. vs 10 mg/kg i.p.
  overall bioavailability compared to the i.p. administration route: 20%
BALB/c male mice [3]; p.o., hot plate
  estimated effective dose (ED50): 42.5 ± 3.9 mg/kg
  minimum dose necessary to significantly increase the pain threshold: 50 mg/kg
BALB/c male mice [4]
  antinociception in tetrad test (hot plate): significant antinociception
  motor coordination (rotarod): No statistical differences
BALB/c male mice [4]; not statistically different
  change in body temperature: -0.8 ± 0.8 °C
  latency of catalepsy: 10.5 ± 10.6 s
[5]; 25 mg/kg p.o., 1 h
  2-AG levels in plasma: 21.4 ± 4.5 pmol/mL
[5]; 50 mg/kg p.o., 1 h
  2-AG levels in plasma: 22.6 ± 4.8 pmol/mL
  2-AG levels in somatosensory cortex: no changes
  AEA and 2-AG levels in total brain: tendency to increase
  AEA levels in somatosensory cortex: significant increase
  concentration of AEA in plasma: 2.2 ± 0.3 pmol/mL
[5]; 50 mg/kg p.o., 1 h, tendency, not significant
  2-AG concentration in total brain: 13.9 ± 2.6 nmol/g
[5]; 100 mg/kg p.o., 1 h
  2-AG levels in plasma: 23.8 ± 5.7 pmol/mL
[5]; 25, 50, and 100 mg/kg p.o., vs control
  increase of 2-AG levels in plasma: 40%
[5]; BALB/c mice, 1 h after p.o.
  levels of WOBE437 in somatosensory cortex, total brain and plasma: in the same range as in male C57BL6/J mice
[5]; somatosensory cortex, total brain or plasma, 1 h after p.o.
  levels of N-acylethanolamines other than AEA (PEA, OEA, LEA): No changes
BALB/c mice [6]; 10 mg/kg i.p., 3 days treatment
  reduction in allodynia as compared to the contralateral knee: 52%
BALB/c mice [6]; 10 mg/kg i.p., 3 days treatment, as compared to the contralateral knee
  reduction of inflammation (edema): 58%
BALB/c mice [6]; 10 mg/kg i.p., 3 days treatment, ipsilateral knee
  knee diameter: 5.3 ± 0.4 mm
BALB/c mice [6]; 10 mg/kg i.p., single dose, 1 h post treatment
  allodynia after single dose: significantly decrease allodynia
BALB/c mice [6]; 2.5 and 5.0 mg/kg i.p.
  allodynia and edema at lower doses: did not show any significant changes
BALB/c mice [7]
  spontaneous motor activity (travel distance): without significant observable changes
[8]
  expression of Cnr1, Cnr2, Dagla and Nape-pld: did not lead to any significant change
BALB/c male mice [9]
  fully effective dose in the hot plate test upon systemic administration: 10 mg/kg

## Cc1c(C(=O)NN2CCCCC2)nn(-c2ccc(Cl)cc2Cl)c1-c1ccc(Cl)cc1 [rimonabant]
BALB/c male mice [3]; rimonabant 5 mg/kg i.p. 30 min before WOBE437 50 or 100 mg/kg p.o.
  effect of antagonist pre-treatment on the antinociceptive effect of WOBE437: completely abolished
BALB/c mice [6]; 3 days
  effect of antagonist on the antiallodynia effect of WOBE437, 3 days treatment: fully abolished
  effect of antagonist on the antiinflammatory (edema) effect of WOBE437, 3 days treatment: only partially prevented
BALB/c mice [6]; single dose
  effect of antagonist on the antiallodynia effect of WOBE437, single dose: did not block

## SR144528
BALB/c mice [6]; 3 days
  effect of antagonist on the antiallodynia effect of WOBE437, 3 days treatment: fully abolished
BALB/c mice [6]; single dose
  effect of antagonist on the antiallodynia effect of WOBE437, single dose: completely prevented

## Oc1cc2c(cc1O)CN(C(=S)NCCc1ccc(Cl)cc1)CCC2 [capsazepine]
BALB/c mice [6]; single dose
  effect of antagonist on the antiallodynia effect of WOBE437, single dose: completely prevented
BALB/c mice [6]; capsazepine with WOBE437 10 mg/kg i.p., 3 days
  tolerability of the antagonist together with 3 days WOBE437 treatment: unexpected hypersensitivity

## O=C(Nc1ccccc1)c1cc([N+](=O)[O-])ccc1Cl [GW9662]
BALB/c mice [6]; 3 days
  effect of antagonist on the antiallodynia effect of WOBE437, 3 days treatment: fully abolished
  effect of antagonist on the antiinflammatory (edema) effect of WOBE437, 3 days treatment: only partially prevented
BALB/c mice [6]; single dose
  effect of antagonist on the antiallodynia effect of WOBE437, single dose: did not block

Reference: paper PMC5992379 (Frontiers in Molecular Neuroscience, 2018)
